pEC50: −log10 of the molar value.
Molecular target: T1, FXR (farnesoid-X-receptor; pCMVSPORT-FXR) (Homo sapiens, UniProt Q96RI1)
T1 construct: gene NR1H4; FXR expressed from pCMVSPORT-FXR, co-transfected with pSG5-RXR in HepG2 cells; p(hsp27)TKLUC luciferase reporter (IR1 element), Renilla normalisation
T1 sequence (Q96RI1 1-486): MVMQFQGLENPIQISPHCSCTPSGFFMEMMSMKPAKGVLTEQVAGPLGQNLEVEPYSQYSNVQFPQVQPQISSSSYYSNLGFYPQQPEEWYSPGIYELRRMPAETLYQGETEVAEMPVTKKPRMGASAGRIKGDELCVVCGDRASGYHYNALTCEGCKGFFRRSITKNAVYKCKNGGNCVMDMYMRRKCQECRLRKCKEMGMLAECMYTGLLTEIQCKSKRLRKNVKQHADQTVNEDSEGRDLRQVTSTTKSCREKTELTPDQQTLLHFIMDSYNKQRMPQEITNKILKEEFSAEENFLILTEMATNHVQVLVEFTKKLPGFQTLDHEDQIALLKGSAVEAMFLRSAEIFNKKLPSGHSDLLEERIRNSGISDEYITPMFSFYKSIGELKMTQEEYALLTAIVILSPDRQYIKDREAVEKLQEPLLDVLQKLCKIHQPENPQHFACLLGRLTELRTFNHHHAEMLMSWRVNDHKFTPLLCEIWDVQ
T1 sequence (P19793 1-462 partner): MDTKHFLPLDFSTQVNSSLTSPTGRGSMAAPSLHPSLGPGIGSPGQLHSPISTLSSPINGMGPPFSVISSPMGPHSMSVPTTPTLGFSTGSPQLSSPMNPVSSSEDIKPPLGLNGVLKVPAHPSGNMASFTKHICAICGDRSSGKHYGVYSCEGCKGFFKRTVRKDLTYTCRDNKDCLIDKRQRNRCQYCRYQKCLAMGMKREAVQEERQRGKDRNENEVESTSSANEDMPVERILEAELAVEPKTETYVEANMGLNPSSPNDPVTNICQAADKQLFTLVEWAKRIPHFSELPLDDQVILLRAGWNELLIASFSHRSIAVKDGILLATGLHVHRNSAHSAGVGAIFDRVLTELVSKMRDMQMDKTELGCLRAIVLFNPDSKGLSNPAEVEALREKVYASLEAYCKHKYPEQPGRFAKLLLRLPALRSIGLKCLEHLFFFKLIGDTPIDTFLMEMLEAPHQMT
Assay: luciferase reporter transactivation assay in transfected HepG2, antagonist mode
Format: cell-based

Q: C=C1[C@@H](O)CC[C@@]2(C)[C@H]1CCC1=C3CC[C@H]([C@H](C)CC[C@H](CC)C(C)C)[C@@]3(C)CC[C@@H]12 [compound 1, theonellasterol] was tested. Which pEC50 did it give?
A: ~4.30

From PMC3509528, “Preliminary Structure-Activity Relationship on Theonellasterol, a New Chemotype of FXR Antagonist, from the Marine Sponge Theonella swinhoei” (Marine Drugs, 2012)
